Entries after “also recorded” stand apart in the source; their conditions may differ. Where a SMILES comes first, the peptide text is derived from it. [ ]: non-standard residue; d: D form.
What was measured:
[1] = tested on: primary mouse keratinocytes (1° MK); experiment: UVB-evoked Ca++ signaling in primary mouse keratinocytes (fluo-4 imaging); type: cell-based; details: for ET1-augmented, UVB-induced Ca++ transients: UVB and ET1 co-exposure; for UVB-evoked Ca++ signaling (ΔF/F0): GSK205 20 μM
Procedure: Ca++ imaging of 1° MK was conducted following routine procedures. For UVB stimulation, a customized device was built. The system comprised a printed circuit board for electrical interconnects and mechanical support and an ultraviolet light-emitting diode (UV LED).
The operating wavelength was 295 nm (FIG. 2A), with a full-width half-max of 12 nm. The optical power was 500 mW. The focal point was aimed at the plane of the upper surface of the quartz coverslip, which was used to minimize UV absorption along the optical path towards the cells (FIG. 2A-FIG. 2C). The optical intensity at the focal point was estimated to be 150 mW/mm^2.
Ca++ imaging of mouse 1° MK in response to chemical activation of TRPV4 was conducted after loading with 2 μM fura2-AM, following a ratiometric Ca2+ imaging protocol with 340/380 nm […] for dual excitation. Ratios of emissions were acquired at 0.5 Hz. ΔR/R0 was determined as the fraction of the increase of a given ratio over baseline ratio, divided by baseline ratio. For stimulation of cells with UVB, where fura-2 was not suitable because of the proximity of stimulation with 340/380 nm and 295 nm, 2 μM fluo4-AM was used instead. Ca++ imaging was carried out at 488 nm excitation, acquisition of emissions at 0.5 Hz, expressed as ΔF/F0. In the custom-built UV optical system, UV LEDs were capped with a ball lens, a transparent optical window in the shape of a hemispherical lens (FIG. 2B). The LED output optical beam focused at 15-20 mm from the lens, with a spot diameter of approximately 1.5-2.0 mm (FIG. 2C). […] The thermal equilibration stage was set for physiological temperature.

[2] = tested on: ET1; experiment: ET1 secretion by non-stimulated 1° MK (ELISA); type: cell-based, mouse
[3] = tested on: ET1; experiment: ET1 expression by UVB-exposed 1° MK (immunocytochemistry); type: cell-based, mouse; details: cells preincubated with inhibitor
Procedure: 1° MK were exposed to UVB using the UV optical system (295 nm LED). 24 hours later the cells were fixed and fluorescently immunolabeled for ET1. Digital images were captured and subjected to morphometry.
Mouse keratinocytes were cultured on collagen coated quartz coverslips and then stimulated from the bottom using the previously mentioned UV optical system using the 295 nm LED. 24 hours later the cells were fixed in 4% formaldehyde in PBS for 20 minutes, permeabilized with 0.1% Triton X-100 in PBS for 10 minutes, washed, then blocked in 10% normal goat serum in PBS for 45 minutes. Coverslips were incubated overnight with primary antibody mouse anti-ET1 (1:200; Abcam), washed three times in PBS and incubated with secondary antibody for 2 hours at 25° C. Coverslips were washed three times in PBS, once with double-distilled H2O. Digital images were captured using a 40× immersion lens on the BX61 Olympus upright microscope. Morphometric analysis was conducted using ImageJ freeware with tailored regions-of-interest.

[4] = molecular target: T1, human TRPV2 (Homo sapiens, UniProt Q9Y5S1); experiment: Ca2+ signal in N2a cells transfected with human TRPV2; type: cell-based; details: stimulation with hypotonicity (260 mosmol/L)
T1 construct: expressed in transfected cells; host or cells: N2a cells
T1 sequence (Q9Y5S1 1-764): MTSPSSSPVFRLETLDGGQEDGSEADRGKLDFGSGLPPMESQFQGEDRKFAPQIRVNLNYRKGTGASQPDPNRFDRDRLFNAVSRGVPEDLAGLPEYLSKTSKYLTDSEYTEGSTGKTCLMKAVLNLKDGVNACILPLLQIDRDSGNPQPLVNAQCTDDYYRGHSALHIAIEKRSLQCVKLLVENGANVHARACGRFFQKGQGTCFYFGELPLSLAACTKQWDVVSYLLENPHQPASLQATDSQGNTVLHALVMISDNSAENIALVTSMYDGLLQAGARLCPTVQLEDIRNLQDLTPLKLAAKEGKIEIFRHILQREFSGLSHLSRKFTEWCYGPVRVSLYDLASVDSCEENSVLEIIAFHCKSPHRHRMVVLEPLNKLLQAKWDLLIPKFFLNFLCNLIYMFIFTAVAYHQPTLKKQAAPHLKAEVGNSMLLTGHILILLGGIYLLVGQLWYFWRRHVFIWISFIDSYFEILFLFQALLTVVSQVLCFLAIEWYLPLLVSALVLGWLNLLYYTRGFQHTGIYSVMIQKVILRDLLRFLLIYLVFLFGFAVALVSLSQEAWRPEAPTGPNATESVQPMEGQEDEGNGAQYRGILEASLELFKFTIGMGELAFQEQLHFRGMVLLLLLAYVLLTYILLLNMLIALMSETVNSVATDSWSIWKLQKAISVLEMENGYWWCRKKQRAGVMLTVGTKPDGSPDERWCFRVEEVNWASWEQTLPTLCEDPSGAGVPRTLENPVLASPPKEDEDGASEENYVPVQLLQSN
Procedure: (§1) Compounds were tested for their effect on TRPV1, TRPV2, and TRPV3. Methods were similar to those described in Example 15. Briefly, N2a cells were transfected with human TRPV1, TRPV2, or TRPV3. eGFP-transfection was used as control. For specific stimulation of TRPV1, 5 μM capsaicin was used. For stimulation of TRPV2, hypotonicity (260 mosmol/L) was used, based on previous reports of TRPV2 being osmotically responsive. N2a cells were not responsive to hypotonicity, and neither were control-transfected cells. For TRPV3-expressing cells, camphor (20% of a commercially available stock solution) was used. […] Stimulation and control protocols were applied as for TRPA1-expressing N2a cells as detailed above in Example 15.

[5] = molecular target: T2, human TRPV3 (Homo sapiens, UniProt Q8NET8); experiment: Ca2+ signal in N2a cells transfected with human TRPV3; type: cell-based; details: stimulation with camphor
T2 construct: expressed in transfected cells; host or cells: N2a cells
T2 sequence (Q8NET8 1-790): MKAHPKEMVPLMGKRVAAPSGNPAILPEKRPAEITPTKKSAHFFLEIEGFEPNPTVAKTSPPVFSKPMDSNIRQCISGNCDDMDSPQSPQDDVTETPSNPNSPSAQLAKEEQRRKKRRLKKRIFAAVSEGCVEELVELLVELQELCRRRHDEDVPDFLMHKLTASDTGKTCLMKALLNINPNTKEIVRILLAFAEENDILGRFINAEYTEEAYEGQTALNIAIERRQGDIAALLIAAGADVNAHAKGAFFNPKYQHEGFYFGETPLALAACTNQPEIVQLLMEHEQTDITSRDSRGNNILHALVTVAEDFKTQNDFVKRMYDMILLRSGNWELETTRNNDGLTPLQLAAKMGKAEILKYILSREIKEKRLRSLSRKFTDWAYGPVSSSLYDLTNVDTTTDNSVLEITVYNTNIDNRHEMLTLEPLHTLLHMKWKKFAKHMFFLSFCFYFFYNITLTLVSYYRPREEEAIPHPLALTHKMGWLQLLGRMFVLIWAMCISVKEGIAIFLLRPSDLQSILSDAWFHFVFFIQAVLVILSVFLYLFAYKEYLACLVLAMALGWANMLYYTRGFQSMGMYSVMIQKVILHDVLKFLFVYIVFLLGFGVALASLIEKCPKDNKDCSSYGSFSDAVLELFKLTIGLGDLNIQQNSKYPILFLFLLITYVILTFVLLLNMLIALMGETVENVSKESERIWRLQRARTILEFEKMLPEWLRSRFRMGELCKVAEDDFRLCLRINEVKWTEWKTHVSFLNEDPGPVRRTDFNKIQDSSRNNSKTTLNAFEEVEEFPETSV
Procedure: as §1

[6] = Formalin-evoked nocifensive (rubbing) behavior, whisker-pad injection, in vivo pain model in mice; design: species or system mouse
Procedure: Compounds were tested for their effect in reducing pain using an in vivo pain model in mice. For mouse formalin-evoked irritant behavior measurements, mice were well-fed, well-rested, and tested at the same time of day, at the same time-point of their circadian rhythm. They were allowed to acclimate to a plexiglas chamber for at least 30 min before testing, and received 10 μL subcutaneous injection of 4% of formalin (diluted from an aqueous solution of commercial 37% formaldehyde with normal saline (NS)) through a 30-gauge needle into the right whiskerpad, as further detailed in Luccarini et al. (J. Pain, 2006, 7, 908-914). Normal saline was used as control injection. After injection, mice were immediately placed back into the chamber and the rubbing behavior was recorded by a private consumer-type video-camera for a 45 min observation period. The recording time was divided into 9 blocks of 5 min, and a nociceptive score was determined per block by measuring the time that the animals spent rubbing the injected area predominantly with the ipsilateral fore-paw and rarely with hind-paw. This rubbing behavior with fore-paw is evoked by pain, which is distinct from itch behavior. Behavioral analysis was conducted by observers blinded to treatment.
To investigate the effects of the specific compounds GSK205, 16-8, and 16-8/18hy on formalin-induced nociceptive behavior, mice received a single subcutaneous injection of the compounds into the whiskerpad (10 μL, dissolved in 4% DMSO) 15 min before formalin injection. Control animals received the same volume of NS, 4% DMSO.

[7] = molecular target: T3, human TRPA1 (Homo sapiens, UniProt O75762); experiment: Ca2+ transient in N2a cells transfected with human TRPA1; type: cell-based; details: 5 μM compound
T3 construct: expressed in transfected cells; host or cells: N2a cells, pcDNA3.1 plasmid, co-transfected with an eGFP plasmid
T3 sequence (O75762 whole entry): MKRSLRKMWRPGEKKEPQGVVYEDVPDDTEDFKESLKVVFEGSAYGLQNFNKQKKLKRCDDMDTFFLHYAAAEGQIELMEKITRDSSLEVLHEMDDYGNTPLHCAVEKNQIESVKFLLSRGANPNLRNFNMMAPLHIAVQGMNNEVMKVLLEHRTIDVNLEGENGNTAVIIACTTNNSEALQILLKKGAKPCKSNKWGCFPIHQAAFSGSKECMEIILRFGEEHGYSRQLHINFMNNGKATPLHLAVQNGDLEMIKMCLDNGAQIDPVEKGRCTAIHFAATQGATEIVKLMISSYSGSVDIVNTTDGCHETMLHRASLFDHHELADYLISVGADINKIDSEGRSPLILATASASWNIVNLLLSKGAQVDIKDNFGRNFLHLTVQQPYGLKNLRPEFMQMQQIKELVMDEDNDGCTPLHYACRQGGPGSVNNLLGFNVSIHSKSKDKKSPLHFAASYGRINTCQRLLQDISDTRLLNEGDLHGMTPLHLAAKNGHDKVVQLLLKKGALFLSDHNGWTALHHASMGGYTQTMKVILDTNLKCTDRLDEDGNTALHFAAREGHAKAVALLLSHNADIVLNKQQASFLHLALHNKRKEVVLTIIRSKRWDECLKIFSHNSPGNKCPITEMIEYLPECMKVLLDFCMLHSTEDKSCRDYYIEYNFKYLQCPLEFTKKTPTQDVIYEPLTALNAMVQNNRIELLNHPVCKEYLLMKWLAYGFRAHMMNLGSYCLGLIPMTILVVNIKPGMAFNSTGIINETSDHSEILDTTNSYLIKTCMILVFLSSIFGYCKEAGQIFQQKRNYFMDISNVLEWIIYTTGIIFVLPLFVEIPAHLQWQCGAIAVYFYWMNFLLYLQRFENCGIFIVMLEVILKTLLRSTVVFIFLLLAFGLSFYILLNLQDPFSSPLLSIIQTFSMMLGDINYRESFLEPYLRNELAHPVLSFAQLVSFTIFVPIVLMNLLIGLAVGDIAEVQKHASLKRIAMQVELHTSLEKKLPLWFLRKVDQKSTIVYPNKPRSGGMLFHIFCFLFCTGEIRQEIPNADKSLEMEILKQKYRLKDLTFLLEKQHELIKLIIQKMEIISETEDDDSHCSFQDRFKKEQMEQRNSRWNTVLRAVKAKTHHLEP
Procedure: Compounds were tested for their effect on TRPA1. N2a permanent cells were transfected with human TRPA1 cDNA, using a pcDNA3.1 expression plasmid. They were co-transfected with eGFP-expressing plasmid, or, for control, with eGFP plasmid only.

[8] = molecular target: TRPV4 (Homo sapiens, UniProt Q9HBA0); experiment: TRPV4-mediated calcium influx in N2a cells with targeted expression of human TRPV4; type: cell-based; design: expressed in transfected cells; host or cells: N2a cells; details: 2.5 μM inhibitor, pre-incubation 10 min; TRPV4 activated with 10 nM GSK101
TRPV4, sequence (Q9HBA0 whole entry): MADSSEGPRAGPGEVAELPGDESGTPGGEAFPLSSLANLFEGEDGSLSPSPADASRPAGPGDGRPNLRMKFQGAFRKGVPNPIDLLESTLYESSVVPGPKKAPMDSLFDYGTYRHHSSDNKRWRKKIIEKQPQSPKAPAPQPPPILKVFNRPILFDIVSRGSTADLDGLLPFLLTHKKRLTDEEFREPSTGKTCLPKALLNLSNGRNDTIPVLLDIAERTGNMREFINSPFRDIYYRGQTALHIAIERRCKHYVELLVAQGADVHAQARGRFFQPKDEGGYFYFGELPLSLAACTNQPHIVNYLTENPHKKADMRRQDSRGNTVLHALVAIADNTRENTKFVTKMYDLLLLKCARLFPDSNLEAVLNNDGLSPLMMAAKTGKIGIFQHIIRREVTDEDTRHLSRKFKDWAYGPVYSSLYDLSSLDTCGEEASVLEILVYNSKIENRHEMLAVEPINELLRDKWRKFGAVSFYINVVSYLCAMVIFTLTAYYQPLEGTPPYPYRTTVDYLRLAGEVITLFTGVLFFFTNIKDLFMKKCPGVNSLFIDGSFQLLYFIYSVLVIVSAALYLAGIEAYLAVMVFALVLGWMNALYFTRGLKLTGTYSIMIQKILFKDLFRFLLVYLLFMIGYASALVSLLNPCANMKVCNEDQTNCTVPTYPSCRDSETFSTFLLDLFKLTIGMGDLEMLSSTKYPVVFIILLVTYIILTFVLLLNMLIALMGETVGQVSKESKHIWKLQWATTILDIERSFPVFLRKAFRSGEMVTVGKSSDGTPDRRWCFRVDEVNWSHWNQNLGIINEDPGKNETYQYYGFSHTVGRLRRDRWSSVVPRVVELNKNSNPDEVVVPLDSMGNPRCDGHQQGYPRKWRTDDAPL
Procedure: Compounds (GSK205, 16-12, 16-13, 16-14, 16-18, 16-8, and 16-8/18hy) were tested for their effect on TRPV4-mediated calcium influx in N2a cultured cells with targeted expression of human TRPV4. Ca2+ imaging was performed according to Li et al. (Environ. Health Perspect. 2011, 119, 784-93) and Moore et al. (Proc. Natl. Acad. Sci. U.S.A. 2013, 110, E3225-E3234). Briefly, Ca2+ imaging of primary mouse epidermal keratinocytes (1° MK) in response to chemical activation of TRPV4 was conducted after loading with 2 μM fura2-AM, following a ratiometric Ca2+-imaging protocol with 340/380 nm blue light for dual excitation. Ratios of emissions were acquired at 0.5 Hz. ΔR/R0 was determined as the fraction of the increase of a given ratio over baseline ratio, divided by baseline ratio. For stimulation of cells with UVB, where fura-2 was not suitable because of the proximity of stimulation with 340/380 nm vs. 295 nm, 2 μM fluo4-AM was used instead. Ca2+ imaging was carried out at 488 nm excitation, acquisition of emissions at 0.5 Hz, expressed as ΔF/F0. TRPV4 was activated with 10 nM GSK101, a specific activator, which had no effect on RFP-transfected cells. Each of the […] compounds were added to a concentration of 2.5 μM, and its effect was observed.

[9] = molecular target: T4, human TRPV1 (Homo sapiens, UniProt Q8NER1); experiment: Ca2+ signal in N2a cells transfected with human TRPV1; type: cell-based; details: stimulation with 5 μM capsaicin
T4 construct: expressed in transfected cells; host or cells: N2a cells
T4 sequence (Q8NER1 whole entry): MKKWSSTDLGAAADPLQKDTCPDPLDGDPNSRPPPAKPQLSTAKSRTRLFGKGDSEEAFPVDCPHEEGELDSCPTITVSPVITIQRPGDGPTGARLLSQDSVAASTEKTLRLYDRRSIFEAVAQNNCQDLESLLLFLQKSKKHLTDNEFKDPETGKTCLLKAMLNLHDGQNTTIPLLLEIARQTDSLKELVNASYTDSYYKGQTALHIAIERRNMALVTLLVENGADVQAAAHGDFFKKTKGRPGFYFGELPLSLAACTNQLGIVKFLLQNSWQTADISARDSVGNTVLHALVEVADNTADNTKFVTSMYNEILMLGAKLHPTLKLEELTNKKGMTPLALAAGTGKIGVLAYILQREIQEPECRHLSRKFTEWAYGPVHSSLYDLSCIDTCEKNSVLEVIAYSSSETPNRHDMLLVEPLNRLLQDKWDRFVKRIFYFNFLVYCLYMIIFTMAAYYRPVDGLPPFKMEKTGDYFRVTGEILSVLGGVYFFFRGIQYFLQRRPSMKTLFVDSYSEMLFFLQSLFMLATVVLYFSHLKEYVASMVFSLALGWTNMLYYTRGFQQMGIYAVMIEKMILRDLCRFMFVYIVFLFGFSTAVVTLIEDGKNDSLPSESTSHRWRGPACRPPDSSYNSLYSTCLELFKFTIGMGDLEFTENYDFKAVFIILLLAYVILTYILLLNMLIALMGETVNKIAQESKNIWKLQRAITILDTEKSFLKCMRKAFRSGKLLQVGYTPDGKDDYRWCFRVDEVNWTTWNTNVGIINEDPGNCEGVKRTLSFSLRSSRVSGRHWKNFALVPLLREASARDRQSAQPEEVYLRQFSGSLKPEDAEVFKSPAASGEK
Procedure: as §1

CC(C)C[C@@H]1NC(=O)[C@@H](C(C)C)NC(=O)[C@@H]2CCCN2C(=O)[C@@H](CC(=O)O)NC(=O)[C@@H](Cc2c[nH]c3ccccc23)NC1=O [BQ123] (cyclo(L[dW][dD]P[dV]))
ET1-augmented, UVB-induced Ca++ transients [1]: attenuated

CCCC[C@@H](NC(=O)[C@@H](Cc1cn(C(=O)OC)c2ccccc12)NC(=O)[C@H](CC(C)(C)C)NC(=O)N1[C@H](C)CCC[C@@H]1C)C(=O)O [BQ788]
ET1-augmented, UVB-induced Ca++ transients [1]: attenuated

O=C(O)C(Cc1ccc2c(c1)oc1ccccc12)NCP(=O)(O)O (centres unmarked) [CGS35066]
ET1 secretion into supernatant (relative ET1 concentration) [2]: down-regulation
UVB-evoked Ca++ signaling (ΔF/F0) [1]: significantly diminished; also recorded: significant attenuation
ET1 immunoreactivity [3]: significant down-regulation

CCN(CCc1ccc(Nc2nc(-c3ccccc3)cs2)cc1)Cc1ccccc1 [Compound 16-8/18hy]
Ca2+ transience on TRPV2 stimulation [4]: not affected
Ca2+ transience on TRPV3 stimulation [5]: not affected
formalin-induced nocifensive behavior at the 45-min time-point ([6]; 0.5 mM/10 μL, 45-min time-point): reversal to control levels
formalin-induced nocifensive behavior, time course ([6]; 0.5 mM/10 μL, FIG. 21D): significantly attenuated nocifensive behavior
formalin-induced nocifensive behavior, quantitation, in particular second phase ([6]; compounds pre-injected at 0.5 mM/10 μL into whiskerpad 15 min before 4% formalin): significant attenuation of nocifensive behavior
inhibitory activity against human TRPA1 [7]: inhibitory activity
inhibition of TRPV4-mediated calcium influx (peak calcium concentration in the cells) [8]: did not show enhanced inhibition over 16-8
Ca2+ transience on TRPV1 stimulation [9]: not affected

CCN(CCc1ccc(Nc2nc(-c3cccnc3)cs2)cc1)Cc1ccccc1 [Compound 16-18]
inhibition of TRPV4-mediated calcium influx (peak calcium concentration in the cells) [8]: most potent

COc1ccc2c(c1)CC[C@@H]1[C@@H]2CC[C@]2(C)[C@@H](NCCCCCCN3C(=O)C=CC3=O)CC[C@@H]12 [Compound U73122]
ET1 secretion into supernatant (relative ET1 concentration) [2]: down-regulation
UVB-evoked Ca++ signaling (ΔF/F0) [1]: virtually eliminated; also recorded: strongly reduced
ET1 immunoreactivity [3]: dampened ET1 expression; also recorded: significant down-regulation

C=C(C)CCO[P@@](=O)(O)OP(=O)(O)O [IPP, isopentenyl pyrophosphate]
UVB-evoked Ca++ signaling (ΔF/F0) [1]: no effect; also recorded: not inhibited

CC(C)NCCN(C(C)C)S(=O)(=O)c1ccc(Cl)cc1Cl [RN1734]
ET1 secretion into supernatant (relative ET1 concentration) [2]: significant down-regulation
ET1 immunoreactivity [3]: diminished; also recorded: significant down-regulation
